Assay results: ChEMBL document CHEMBL3228010, “Potential antitumor agents. 29. Quantitative structure-activity relationships for the antileukemic bisquaternary ammonium heterocycles” (J Med Chem, 1979)

Columns and labels:
Mus musculus = assay: Toxicity in ip dosed C3H X DBA2 F1 hybrid mouse […] with mouse L1210 cells on day 0 and dosed once daily on days 1 to 5 measured after 50 days; assay type: organism-based; conditions: in vivo, 1200 h
[1] = Lipophilic-hydrophilic balance, Rm of the compound by partition chromatography; assay type: physicochemical
L1210 [2] = assay: Antitumor activity against mouse L1210 cells […] in ip dosed C3H X DBA2 F1 hybrid mouse on day 0 and dosed once daily on days 1 to 5 assessed as increase in life span relative to control; assay type: functional
[3] = Displacement of ethidium from poly[d(G-C)]-poly[d(G-C)] DNA (unknown origin) by fluorimetric method
Bos taurus = species: Bos taurus; assay: Displacement of ethidium from calf thymus DNA by fluorimetric method
[4] = Displacement of ethidium from poly[d(A-T)]-poly[d(A-T)] DNA by fluorimetric method
L1210 [5] = assay: Antitumor activity against mouse L1210 cells […] in ip dosed C3H X DBA2 F1 hybrid mouse on day 0 and dosed at LD10 level once daily on days 1 to 5 assessed as increase in life span relative to control; assay type: functional

C[n+]1cccc(NC(=O)c2ccc(NC(=O)c3ccc(C(=O)Nc4ccc(C(=O)Nc5ccc[n+](C)c5)cc4)c4ccccc34)cc2)c1.Cc1ccc(S(=O)(=O)[O-])cc1.Cc1ccc(S(=O)(=O)[O-])cc1
LD10 (Mus musculus): 140 mg/kg
Rm [1]: 0.45
D40 (L1210 [2]): 54.5 mg/kg
C50 [3]: 2.7 µM
C50 (Bos taurus): 1.5 µM
C50 [4]: 1.1 µM
log(ILSmax) (L1210 [5]): 1.84

C[n+]1cccc(NC(=O)c2ccc(NC(=O)c3ccc(C(=O)Nc4ccc(N/N=N/c5ccc(C(=N)N)cc5)cc4)cc3)cc2)c1.Cc1ccc(S(=O)(=O)O)cc1.Cc1ccc(S(=O)(=O)[O-])cc1
LD10 (Mus musculus): 35 mg/kg
Rm [1]: -0.77
D40 (L1210 [2]): 6 mg/kg
C50 [3]: 0.64 µM
C50 (Bos taurus): 0.48 µM
C50 [4]: 0.22 µM
log(ILSmax) (L1210 [5]): 2.1

CC[n+]1cc(-c2ccc(NC(=O)c3ccc(C(=O)Nc4ccc(-c5c[n+](CC)c(N)nc5N)cc4)cc3)cc2)c(N)nc1N.Cc1ccc(S(=O)(=O)[O-])cc1.Cc1ccc(S(=O)(=O)[O-])cc1
LD10 (Mus musculus): 15 mg/kg
Rm [1]: -0.19
D40 (L1210 [2]): 3.5 mg/kg
C50 [3]: 2.1 µM
C50 (Bos taurus): 0.84 µM
C50 [4]: 0.45 µM
log(ILSmax) (L1210 [5]): 2.17

C/C(=N\NC(=N)N)c1ccc(NC(=O)Nc2ccc(Nc3c4ccccc4[n+](C)c4cc(N)ccc34)cc2)cc1.Cl.[Cl-]
LD10 (Mus musculus): 22 mg/kg
Rm [1]: 0.69
D40 (L1210 [2]): 0.3 mg/kg
C50 [3]: 0.2 µM
C50 (Bos taurus): 0.13 µM
C50 [4]: 0.09 µM
log(ILSmax) (L1210 [5]): 2.55

C[n+]1ccc(Nc2ccc(C(=O)Nc3ccc(Nc4cc[n+](C)c5ccc(N)cc45)cc3)c(N)c2)cc1.[Br-].[Br-]
LD10 (Mus musculus): 20 mg/kg
Rm [1]: -0.3
D40 (L1210 [2]): 1 mg/kg
C50 [3]: 0.91 µM
C50 (Bos taurus): 0.6 µM
C50 [4]: 0.15 µM
log(ILSmax) (L1210 [5]): 2.43

Br.C/C(=N\NC(=N)N)c1ccc(NC(=O)c2ccc(Nc3cc[n+](C)c4ccccc34)cc2)cc1.[Br-]
LD10 (Mus musculus): 33 mg/kg
Rm [1]: -0.07
D40 (L1210 [2]): 13 mg/kg
C50 [3]: 1.04 µM
C50 (Bos taurus): 0.78 µM
C50 [4]: 0.39 µM
log(ILSmax) (L1210 [5]): 1.91

C[n+]1ccc(Nc2ccc(C(=O)Nc3ccc(Nc4cc[n+](C)c5cc(N)ccc45)cc3)cc2)cc1.Cc1ccc(S(=O)(=O)[O-])cc1.Cc1ccc(S(=O)(=O)[O-])cc1
LD10 (Mus musculus): 25 mg/kg
Rm [1]: -0.04
D40 (L1210 [2]): 1.5 mg/kg
C50 [3]: 1.04 µM
C50 (Bos taurus): 0.43 µM
C50 [4]: 0.12 µM
log(ILSmax) (L1210 [5]): 2.34

C[n+]1ccc(Nc2ccc(NC(=O)/C=C/c3ccc(/C=C/C(=O)Nc4ccc(Nc5cc[n+](C)cc5)cc4)cc3)cc2)cc1.Cc1ccc(S(=O)(=O)[O-])cc1.Cc1ccc(S(=O)(=O)[O-])cc1
LD10 (Mus musculus): 10 mg/kg
Rm [1]: -0.7
D40 (L1210 [2]): 5.1 mg/kg
C50 [3]: 0.38 µM
C50 (Bos taurus): 0.31 µM
C50 [4]: 0.11 µM
log(ILSmax) (L1210 [5]): 1.88

C/C(=N\NC(=N)N)c1ccc(NC(=O)c2ccc(C(=O)Nc3ccc(C(=O)Nc4ccc[n+](C)c4)cc3)cc2)cc1.Cc1ccc(S(=O)(=O)O)cc1.Cc1ccc(S(=O)(=O)[O-])cc1
LD10 (Mus musculus): 20 mg/kg
Rm [1]: -0.53
D40 (L1210 [2]): 8.7 mg/kg
C50 [3]: 0.52 µM
C50 (Bos taurus): 0.46 µM
C50 [4]: 0.3 µM
log(ILSmax) (L1210 [5]): 1.93

C[n+]1cccc(NC(=O)c2ccc(NC(=O)c3ccc(C(=O)Nc4ccc(C(=O)Nc5ccc[n+](C)c5)cc4)c(N)c3)cc2)c1.Cc1ccc(S(=O)(=O)[O-])cc1.Cc1ccc(S(=O)(=O)[O-])cc1
LD10 (Mus musculus): 20 mg/kg
Rm [1]: -0.63
D40 (L1210 [2]): 3.9 mg/kg
C50 [3]: 0.93 µM
C50 (Bos taurus): 0.53 µM
C50 [4]: 0.37 µM
log(ILSmax) (L1210 [5]): 2.17

C/C(=N\NC(=N)N)c1ccc(NC(=O)c2ccc(Nc3cc[n+](C)c4cc([N+](=O)[O-])ccc34)cc2)cc1.Cl.[Cl-]
LD10 (Mus musculus): 56 mg/kg
Rm [1]: -0.24
D40 (L1210 [2]): 5.9 mg/kg
C50 [3]: 0.74 µM
C50 (Bos taurus): 0.2 µM
C50 [4]: 0.13 µM
log(ILSmax) (L1210 [5]): 2.18

C[n+]1ccc(Nc2ccc(NC(=O)Nc3ccc(Nc4cc[n+](C)c5ccc(N)cc45)cc3)cc2)cc1.Cc1ccc(S(=O)(=O)[O-])cc1.Cc1ccc(S(=O)(=O)[O-])cc1
LD10 (Mus musculus): 6 mg/kg
Rm [1]: 0.17
D40 (L1210 [2]): 3 mg/kg
C50 [3]: 1.2 µM
C50 (Bos taurus): 0.51 µM
C50 [4]: 0.28 µM
log(ILSmax) (L1210 [5]): 1.74

CC[n+]1ccc(Nc2ccc(NC(=O)c3ccc(Nc4cc[n+](CC)c5ccc(N)cc45)cc3)cc2)cc1.[Br-].[Br-]
LD10 (Mus musculus): 10 mg/kg
Rm [1]: 0.22
D40 (L1210 [2]): 0.9 mg/kg
C50 [3]: 1.04 µM
C50 (Bos taurus): 0.69 µM
C50 [4]: 0.1 µM
log(ILSmax) (L1210 [5]): 2.25

CC[n+]1ccc(Nc2ccc(NC(=O)c3ccc(Nc4cc(C)[n+](CC)c5ccc(N)cc45)cc3N)cc2)cc1.[I-].[I-]
LD10 (Mus musculus): 20 mg/kg
Rm [1]: 0.34
D40 (L1210 [2]): 7.2 mg/kg
C50 [3]: 1.17 µM
C50 (Bos taurus): 0.5 µM
C50 [4]: 0.31 µM
log(ILSmax) (L1210 [5]): 1.86

C[n+]1ccc(Nc2ccc(C(=O)Nc3ccc(Nc4cc[n+](C)c5ccc(N)cc45)c(N)c3)cc2)cc1.Cc1ccc(S(=O)(=O)[O-])cc1.Cc1ccc(S(=O)(=O)[O-])cc1
LD10 (Mus musculus): 9 mg/kg
Rm [1]: -0.15
D40 (L1210 [2]): 1.1 mg/kg
C50 [3]: 2.68 µM
C50 (Bos taurus): 1.58 µM
C50 [4]: 0.25 µM
log(ILSmax) (L1210 [5]): 2.03

C(=C\c1ccc(-[n+]2ccccc2)cc1)/c1ccc(/C=C/c2ccc(-[n+]3ccccc3)cc2)cc1.Cc1ccc(S(=O)(=O)[O-])cc1.Cc1ccc(S(=O)(=O)[O-])cc1
LD10 (Mus musculus): 7 mg/kg
Rm [1]: 0.05
D40 (L1210 [2]): 1.6 mg/kg
C50 [3]: 2.1 µM
C50 (Bos taurus): 0.76 µM
C50 [4]: 0.2 µM
log(ILSmax) (L1210 [5]): 1.95

C[n+]1cccc(NC(=O)c2ccc(NC(=O)c3ccc(C(=O)Nc4ccc(C(=O)Nc5ccc[n+](C)c5)c(N)c4)cc3N)cc2)c1.Cc1ccc(S(=O)(=O)[O-])cc1.Cc1ccc(S(=O)(=O)[O-])cc1
LD10 (Mus musculus): 9 mg/kg
Rm [1]: -0.7
D40 (L1210 [2]): 1.4 mg/kg
C50 [3]: 0.54 µM
C50 (Bos taurus): 0.39 µM
C50 [4]: 0.15 µM
log(ILSmax) (L1210 [5]): 2.32

C[n+]1ccc(-c2ccc(-c3ccc(-c4ccc(/N=N/Nc5ccc(C(=O)Nc6ccc(-c7ccc(-c8ccc(-c9cc[n+](C)cc9)cc8)cc7)cc6)cc5)cc4)cc3)cc2)cc1.Cc1ccc(S(=O)(=O)[O-])cc1.Cc1ccc(S(=O)(=O)[O-])cc1
LD10 (Mus musculus): 6 mg/kg
Rm [1]: -0.22
D40 (L1210 [2]): 1.4 mg/kg
C50 [3]: 0.38 µM
C50 (Bos taurus): 0.83 µM
C50 [4]: 0.1 µM
log(ILSmax) (L1210 [5]): 2.34

C[n+]1ccc(-c2ccc(NC(=O)c3ccc(Nc4cc[n+](C)c5ccccc45)cc3)cc2)cc1.Cc1ccc(S(=O)(=O)[O-])cc1.Cc1ccc(S(=O)(=O)[O-])cc1
LD10 (Mus musculus): 15 mg/kg
Rm [1]: 0.33
D40 (L1210 [2]): 2.2 mg/kg
C50 [3]: 3 µM
C50 (Bos taurus): 0.89 µM
C50 [4]: 0.3 µM
log(ILSmax) (L1210 [5]): 2.08

C[n+]1cccc(NC(=O)c2ccc(NC(=O)c3ccc(C(=O)Nc4ccc(C(=O)Nc5ccc[n+](C)c5)cc4Cl)cc3)c(Cl)c2)c1.Cc1ccc(S(=O)(=O)[O-])cc1.Cc1ccc(S(=O)(=O)[O-])cc1
LD10 (Mus musculus): 50 mg/kg
Rm [1]: 0.36
D40 (L1210 [2]): 50 mg/kg
C50 [3]: 1.5 µM
C50 (Bos taurus): 1.3 µM
C50 [4]: 1.3 µM
log(ILSmax) (L1210 [5]): 1.6

C[n+]1cccc2ccc(NC(=O)c3ccc(-c4ccc(-c5ccc(-c6ccc(C(=O)Nc7ccc8ccc[n+](C)c8c7)cc6)cc5)cc4)cc3)cc21.Cc1ccc(S(=O)(=O)[O-])cc1.Cc1ccc(S(=O)(=O)[O-])cc1
LD10 (Mus musculus): 52 mg/kg
Rm [1]: -0.57
D40 (L1210 [2]): 20 mg/kg
C50 [3]: 0.28 µM
C50 (Bos taurus): 0.17 µM
C50 [4]: 0.14 µM
log(ILSmax) (L1210 [5]): 1.85
